For one data set, the system named is HIV-IIIb. The data set is described as follows: Test A: Antiviral Assay in MT4 Cells. It counts as cell-based, HIV-1. The conditions noted are these: Human immunodeficiency virus 1, IIIB, MT4, 120 h; for inhibition at 0.2 µM: read-out: % inhibition at 0.2 μM; for inhibition at 2 µM: read-out: % inhibition at 2 μM. The method, then:
Test A: Antiviral Assay in MT4 Cells
MT-4 cells were next mixed with HIV-IIIb at an m.o.i of 0.003 for 1 hour, after which time 35 μL of virus/cell mixture (2000 cells) was immediately added to each well containing 40 μL of diluted compound. The plates were then incubated at 37° C. for 5 days. […] Cell lysis was carried out by incubating at room temperature for 10 min and then chemiluminescence was read.

The nature of data set [1]: Test B: Cytotoxicity Assay. It counts as cell-based. The following applies: human, uninfected MT-4 cells, same protocol as Test A. The gist of the method: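 Uninfected MT-4 cells (2000 per well) incubated with diluted compound at 37° C. for 5 days, following the antiviral protocol without HIV-IIIb.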

Broadly, the inhibition is the share of the control response that was lost under treatment. By CC50 is commonly meant the concentration that lowers cell viability or growth by half. A low value points to harm at low concentration. As for `CC(C)(O)C#Cc1ccc(-c2ccc(Cl)n3c(NS(C)(=O)=O)nnc23)c([C@H](Cc2cc(F)cc(F)c2)NC(=O)Cn2nc(C(F)F)c3c2C(F)(F)[C@@H]2C[C@H]32)n1` [Compound 110E, N—((S)-1-(3-(5-chloro-3-(methylsulfonamido)-[1,2,4]triazolo[4,3-a]pyridin-8-yl)-6-(3-hydroxy-3-methylbut-1-yn-1-yl)pyridin-2-yl)-2-(3,5-difluorophenyl)ethyl)-2-((3b-S,4aR)-3-(difluoromethyl)-5,5-difluoro-3b,4,4a,5-tetrahydro-1H-cyclopropa[3,4]cyclopenta[1,2-c]pyrazol-1-yl)acetamide], in the data set with HIV-IIIb, the inhibition at 0.2 µM is 15% and the inhibition at 2 µM was determined as 98%. In data set [1], the CC50 at 5 days is greater than 53.2 µM.
For `CCC(=O)Nc1nn(C)c2c(-c3ccc(C#CC(C)(C)O)nc3[C@H](Cc3cc(F)cc(F)c3)NC(=O)Cn3nc(C(F)F)c4c3C(F)(F)[C@@H]3C[C@H]43)ccc(Cl)c12` [Compound 95, N-(4-chloro-7-(2-((S)-1-(2-((3b-S,4aR)-3-(difluoromethyl)-5,5-difluoro-3b,4,4a,5-tetrahydro-1H-cyclopropa[3,4]cyclopenta[1,2-c]pyrazol-1-yl)acetamido)-2-(3,5-difluorophenyl)ethyl)-6-(3-hydroxy-3-methylbut-1-yn-1-yl)pyridin-3-yl)-1-methyl-1H-indazol-3-yl)propionamide], in that order: 93%, 93% and 6.51 µM.
Consider `Cn1nc(NS(C)(=O)=O)c2c(Cl)ccc(-c3ccc(C#CC(C)(O)CF)nc3[C@H](Cc3cc(F)cc(F)c3)NC(=O)Cn3nc(C(F)(F)F)c4c3C(F)(F)[C@@H]3C[C@H]43)c21` (stereo partly drawn) [Compound 152, N-((1S)-1-(3-(4-chloro-1-methyl-3-(methylsulfonamido)-1H-indazol-7-yl)-6-(4-fluoro-3-hydroxy-3-methylbut-1-yn-1-yl)pyridin-2-yl)-2-(3,5-difluorophenyl)ethyl)-2-((3b-S,4aR)-5,5-difluoro-3-(trifluoromethyl)-3b,4,4a,5-tetrahydro-1H-cyclopropa[3,4]cyclopenta[1,2-c]pyrazol-1-yl)acetamide], for which, in the data set with HIV-IIIb, the inhibition at 0.2 µM was 89% and the inhibition at 2 µM came out at 89%. In data set [1], this molecule came in with a half-maximal cytotoxic concentration (CC50) at 5 days of 11.9 µM.
Turning to `Cn1nc(NS(C)(=O)=O)c2cccc(-c3cnc(C#CC(C)(C)O)nc3[C@H](Cc3cc(F)cc(F)c3)NC(=O)Cn3nc(C(F)F)c4c3C(F)(F)CCC4(F)F)c21` [Compound 40, (S)-2-(3-(difluoromethyl)-4,4,7,7-tetrafluoro-4,5,6,7-tetrahydro-1H-indazol-1-yl)-N-(2-(3,5-difluorophenyl)-1-(2-(3-hydroxy-3-methylbut-1-yn-1-yl)-5-(1-methyl-3-(methylsulfonamido)-1H-indazol-7-yl)pyrimidin-4-yl)ethyl)acetamide], in the data set with HIV-IIIb, the inhibition at 0.2 µM is 87% and the inhibition at 2 µM worked out at 87%. The CC50 at 5 days in data set [1] is 8.72 µM.
`CC(C)(O)C#Cc1ccc(-c2cccc3c(NS(C)(=O)=O)noc23)c([C@H](Cc2cc(F)cc(F)c2)NC(=O)Cn2nc(C(F)(F)F)c3c2C(F)(F)[C@@H]2C[C@H]32)n1` [Compound 39C, 2-((3bS,4aR)-5,5-difluoro-3-(trifluoromethyl)-3b,4,4a,5-tetrahydro-1H-cyclopropa[3,4]cyclopenta[1,2-c]pyrazol-1-yl)-N—((S)-2-(3,5-difluorophenyl)-1-(6-(3-hydroxy-3-methylbut-1-yn-1-yl)-3-(3-(methylsulfonamido)benzo[d]isoxazol-7-yl)pyridin-2-yl)ethyl)acetamide]: in the data set with HIV-IIIb, the inhibition at 0.2 µM was determined as 7% and the inhibition at 2 µM was 91%. Moreover, the 50% cytotoxic concentration (CC50) at 5 days in data set [1] stood at 26.5 µM.
Turning to `CC(C)(O)C#Cc1ccc(-c2cccn3c(NCC(F)(F)F)nnc23)c([C@H](Cc2cc(F)cc(F)c2)NC(=O)Cn2nc(C(F)F)c3c2C(F)(F)[C@@H]2C[C@H]32)n1` [Compound 117F, 2-((3b-S,4aR)-3-(difluoromethyl)-5,5-difluoro-3b,4,4a,5-tetrahydro-1H-cyclopropa[3,4]cyclopenta[1,2-c]pyrazol-1-yl)-N—((S)-2-(3,5-difluorophenyl)-1-(6-(3-hydroxy-3-methylbut-1-yn-1-yl)-3-(3-((2,2,2-trifluoroethyl)amino)-[1,2,4]triazolo[4,3-a]pyridin-8-yl)pyridin-2-yl)ethyl)acetamide], in the data set on HIV-IIIb, the inhibition at 0.2 µM worked out at 93% and the inhibition at 2 µM was 100%. The same molecule came in with a cytotoxic concentration (CC50) at 5 days in data set [1] of 27.8 µM.
For `Cn1nc(N)c2cccc(-c3ccc(C#CC(C)(C)O)nc3[C@H](Cc3cc(F)cc(F)c3)NC(=O)Cn3nc(C(F)F)c4c3C3CC3CC4)c21` (stereo partly drawn) [Compound 34, N—((S)-1-(3-(3-amino-1-methyl-1H-indazol-7-yl)-6-(3-hydroxy-3-methylbut-1-yn-1-yl)pyridin-2-yl)-2-(3,5-difluorophenyl)ethyl)-2-(3-(difluoromethyl)-5,5a,6,6a-tetrahydrocyclopropa[g]indazol-1(4H)-yl)acetamide], in that order: 78%, 78% and 8.76 µM.
For `Cn1nc(NS(C)(=O)=O)c2c(Cl)ccc(-c3ccc(C#CC(C)(C)O)nc3[C@H](Cc3cc(F)cc(F)c3)NC(=O)Cn3nc(N)c4c3C(F)(F)[C@@H]3C[C@H]43)c21` [Compound 148B, 2-((3bS,4aR)-3-amino-5,5-difluoro-3b,4,4a,5-tetrahydro-1H-cyclopropa[3,4]cyclopenta[1,2-c]pyrazol-1-yl)-N—((S)-1-(3-(4-chloro-1-methyl-3-(methylsulfonamido)-1H-indazol-7-yl)-6-(3-hydroxy-3-methylbut-1-yn-1-yl)pyridin-2-yl)-2-(3,5-difluorophenyl)ethyl)acetamide], in that order: 83%, 83% and 23.3 µM.
For `Cn1nc(NS(C)(=O)=O)c2c(Cl)ccc(-c3ccc(C#CC(O)(CF)CF)nc3[C@H](Cc3cc(F)cc(F)c3)NC(=O)Cn3nc(C(F)F)c4c3C(F)(F)[C@@H]3C[C@H]43)c21` [Compound 170, N—((S)-1-(3-(4-chloro-1-methyl-3-(methylsulfonamido)-1H-indazol-7-yl)-6-(4-fluoro-3-(fluoromethyl)-3-hydroxybut-1-yn-1-yl)pyridin-2-yl)-2-(3,5-difluorophenyl)ethyl)-2-((3b-S,4aR)-3-(difluoromethyl)-5,5-difluoro-3b,4,4a,5-tetrahydro-1H-cyclopropa[3,4]cyclopenta[1,2-c]pyrazol-1-yl)acetamide], in that order: 88%, 88% and 17 µM.
On to `CC(C)(O)C#Cc1ccc(-c2cccn3c(C(F)F)nnc23)c([C@H](Cc2cc(F)cc(F)c2)NC(=O)Cn2nc(C(F)F)c3c2C(F)(F)[C@@H]2C[C@H]32)n1` [Compound 138, 2-((3b-S,4aR)-3-(difluoromethyl)-5,5-difluoro-3b,4,4a,5-tetrahydro-1H-cyclopropa[3,4]cyclopenta[1,2-c]pyrazol-1-yl)-N—((S)-1-(3-(3-(difluoromethyl)-[1,2,4]triazolo[4,3-a]pyridin-8-yl)-6-(3-hydroxy-3-methylbut-1-yn-1-yl)pyridin-2-yl)-2-(3,5-difluorophenyl)ethyl)acetamide], for which, in the data set with HIV-IIIb, the inhibition at 0.2 µM stood at 61% and the inhibition at 2 µM came to 83%. The same molecule returned a cytotoxic concentration (CC50) at 5 days in data set [1] of 33.4 µM.
For `Cn1nc(NS(C)(=O)=O)c2c(Cl)ccc(-c3ccc(C#CC(C)(C)O)nc3[C@H](Cc3cc(F)cc(F)c3)NC(=O)Cn3nc(C#N)c4c3C(F)(F)[C@@H]3C[C@H]43)c21` [Compound 159, N—((S)-1-(3-(4-chloro-1-methyl-3-(methylsulfonamido)-1H-indazol-7-yl)-6-(3-hydroxy-3-methylbut-1-yn-1-yl)pyridin-2-yl)-2-(3,5-difluorophenyl)ethyl)-2-((3bS,4aR)-3-cyano-5,5-difluoro-3b,4,4a,5-tetrahydro-1H-cyclopropa[3,4]cyclopenta[1,2-c]pyrazol-1-yl)acetamide], in that order: 95%, 95% and 27.4 µM.
For `Cn1nc(NS(N)(=O)=O)c2c(Cl)ccc(-c3ccc(C#CC(C)(C)O)nc3[C@H](Cc3cc(F)cc(F)c3)NC(=O)Cn3nc(C(F)F)c4c3C(F)(F)[C@@H]3C[C@H]43)c21` [Compound 70, N—((S)-1-(3-(4-chloro-1-methyl-3-(sulfamoylamino)-1H-indazol-7-yl)-6-(3-hydroxy-3-methylbut-1-yn-1-yl)pyridin-2-yl)-2-(3,5-difluorophenyl)ethyl)-2-((3b-S,4aR)-3-(difluoromethyl)-5,5-difluoro-3b,4,4a,5-tetrahydro-1H-cyclopropa[3,4]cyclopenta[1,2-c]pyrazol-1-yl)acetamide], in that order: 94%, 94% and 9.98 µM.
For `Cn1nc(NC(=O)C(C)(C)O)c2c(Cl)ccc(-c3ccc(C#CC(C)(C)O)nc3[C@H](Cc3cc(F)cc(F)c3)NC(=O)Cn3nc(C(F)F)c4c3C(F)(F)[C@@H]3C[C@H]43)c21` [Compound 89, N-(4-chloro-7-(2-((S)-1-(2-((3b-S,4aR)-3-(difluoromethyl)-5,5-difluoro-3b,4,4a,5-tetrahydro-1H-cyclopropa[3,4]cyclopenta[1,2-c]pyrazol-1-yl)acetamido)-2-(3,5-difluorophenyl)ethyl)-6-(3-hydroxy-3-methylbut-1-yn-1-yl)pyridin-3-yl)-1-methyl-1H-indazol-3-yl)-2-hydroxy-2-methylpropanamide], in that order: 95%, 95% and 7.77 µM.

For the origin of these results see US20140303164A1, “THERAPEUTIC COMPOUNDS” (Gilead Sciences, Inc., priority 2013, published 2014).
